Assay results taken from patent US4657898A, “N^6 -substituted adenosines and method of use” (Warner-Lambert Company, priority 1985, dated 1987).

Assay: Mouse Activity and Screen Test Procedure (MAST): screen test failure (ST)
Conditions: for MAST ST LAD: lowest dose at which an A rating is achieved, screen test, i.p., mouse; for Inhibition of screen test failure: percent of mice falling off the screen
Method: Nine unfasted Swiss-Webster male mice weighing 20-30 g are equally divided into three groups for each drug dose to be tested. That is, data for each dose level was generated by three separate groups of three mice each.
A minimum of three dose levels (10, 30, and 100 mg/kg) are tested for each drug. Treatments are administered intraperitoneally one hour prior to testing. All dosages are calculated as parent compound and given in volumes of 10 ml/kg. Compounds are dissolved or suspended in 0.2% Methocel. Control animals are injected with Methocel.
Testing: A two part testing procedure is started one hour postinjection. First, the screen test (ST) is performed (see Pharmac. Biochem. Behav. 6, 351-353, 1977). Briefly this test consists of placing mice on individual wire screens which are then rotated 180 degrees at the start of a 60 second observation period. The number of mice falling off the inverted screen is recorded.
Data: The data obtained from the screen test are expressed as percent of mice falling off the screen. Data derived from locomotor activity of drug treated mice are compared to the activity of vehicle treated animals and are expressed as percent inhibition of spontaneous locomotion. All percentages reported for inhibition of locomotion (LI) are based upon data accumulated for one hour. Both phases of testing are graded: A=60-100%; C=31-59%; and N=0-30%. An overall dose rating is obtained by the following criteria:
LAD refers to the lowest dose at which an A rating is achieved. […] The compounds are identified in the Examples.

| MAST ST LAD [mg/kg] | Structure (SMILES) | other results |
| --- | --- | --- |
| > 100 | OC[C@H]1O[C@@H](n2cnc3c(NCC(c4ccccc4)c4ccc(Cl)cc4)ncnc32)[C@H](O)[C@@H]1O (stereo partly drawn) [Example 15, N^6-(2-(4-Chlorophenyl)-2-phenylethyl)adenosine] | – |
| 100 | Cc1cccc(C(CNc2ncnc3c2ncn3[C@@H]2O[C@H](CO)[C@@H](O)[C@H]2O)c2ccccc2)c1 (stereo partly drawn) [Example 9, N^6-(2-(3-Methylphenyl)-2-phenylethyl)adenosine] | – |
| > 100 | OC[C@H]1O[C@@H](n2cnc3c(NCCC(c4ccccc4)c4ccccc4)ncnc32)[C@H](O)[C@@H]1O [Example 2, N^6-(3,3-Diphenylpropyl)adenosine] | Inhibition of screen test failure (10 mg/kg i.p.): 0%; Inhibition of screen test failure (30 mg/kg i.p.): 0%; Inhibition of screen test failure (100 mg/kg i.p.): 0% |
| > 100 | Nc1nc(NCC(c2ccccc2)c2ccc(F)cc2)c2ncn([C@@H]3O[C@H](CO)[C@@H](O)[C@H]3O)c2n1 (stereo partly drawn) [Example 12, N^6-(2-(4-Fluorophenyl)-2-phenylethyl)-2-amino adenosine] | – |
| > 100 | Nc1nc(NCC(c2ccccc2)c2ccc(Cl)cc2)c2ncn([C@@H]3O[C@H](CO)[C@@H](O)[C@H]3O)c2n1 (stereo partly drawn) [Example 16] | – |
| > 100 | OC[C@H]1O[C@@H](n2cnc3c(NCCCC(c4ccccc4)c4ccccc4)ncnc32)[C@H](O)[C@@H]1O [Example 6, N^6-(4,4-Diphenylbutyl)adenosine] | – |
| > 100 | OC[C@H]1O[C@@H](n2cnc3c(NCC(c4ccccc4)c4ccc(F)cc4)nc(Cl)nc32)[C@H](O)[C@@H]1O (stereo partly drawn) [Example 11, N^6-(2-(4-Fluorophenyl)-2-phenylethyl)-2-chloroadenosine] | – |
| 30 | COc1ccc(C(CNc2ncnc3c2ncn3[C@@H]2O[C@H](CO)[C@@H](O)[C@H]2O)c2ccccc2)cc1 (stereo partly drawn) [Example 19, N^6-(2-(4-Methoxyphenyl)-2-phenylethyl)adenosine] | – |
| > 100 | Nc1nc(NCC(c2ccccc2)c2ccccc2)c2ncn([C@@H]3O[C@H](CO)[C@@H](O)[C@H]3O)c2n1 [Example 4, N^6-(2,2-Diphenylethyl)-2-aminoadenosine] | Inhibition of screen test failure (10 mg/kg i.p.): 0%; Inhibition of screen test failure (30 mg/kg i.p.): 11%; Inhibition of screen test failure (100 mg/kg i.p.): 22% |
| > 30 | O=P(O)(O)OC[C@H]1O[C@@H](n2cnc3c(NCC(c4ccccc4)c4ccccc4)ncnc32)[C@H](O)[C@@H]1O [Example 28, N^6-(2,2-Diphenylethyl)adenosine-5'-phosphate] | – |
| > 100 | OC[C@H]1O[C@@H](n2cnc3c(NCC(c4ccccc4)c4ccc(F)cc4)ncnc32)[C@H](O)[C@@H]1O (stereo partly drawn) [Example 10, N^6-(2-(4-Fluorophenyl)-2-phenylethyl)adenosine] | – |
| > 100 | OC[C@H]1O[C@@H](n2cnc3c(NCC(c4ccc(Cl)cc4)c4ccc(Cl)cc4)ncnc32)[C@H](O)[C@@H]1O [Example 17, N^6-(2,2-Di(4-chlorophenyl)ethyl)adenosine] | – |
| > 100 | OC[C@H]1O[C@@H](n2cnc3c(NCC(c4ccc(F)cc4)c4ccc(F)cc4)ncnc32)[C@H](O)[C@@H]1O [Example 13, N^6-(2,2-Di-(4-fluorophenyl)ethyl)adenosine] | – |
| > 100 | OC[C@H]1O[C@@H](n2cnc3c(NCC(c4ccccc4)c4cccc(Cl)c4)ncnc32)[C@H](O)[C@@H]1O (stereo partly drawn) [Example 14, N^6-(2-(3-Chlorophenyl)-2-phenylethyl)adenosine] | – |
| > 100 | OC[C@H]1O[C@@H](n2cnc3c(NCC(c4ccccc4)c4ccccc4)nc(Cl)nc32)[C@H](O)[C@@H]1O [Example 3, N^6-(2,2-Diphenylethyl)-2-chloroadenosine] | Inhibition of screen test failure (10 mg/kg i.p.): 0%; Inhibition of screen test failure (30 mg/kg i.p.): 11%; Inhibition of screen test failure (100 mg/kg i.p.): 44% |

More lines, now with the values behind:

| Structure (SMILES) | MAST ST LAD [mg/kg] | other results |
| --- | --- | --- |
| CC(=O)OC[C@H]1O[C@@H](n2cnc3c(NCC(c4ccccc4)c4ccccc4)nc(Cl)nc32)[C@H](OC(C)=O)[C@@H]1OC(C)=O [Example 27, 2',3',5'-Tri-O-acetyl-N^6-(2,2-diphenylethyl)-2-chloroadenosine] | > 100 | – |
| CC(CNc1ncnc2c1ncn2[C@@H]1O[C@H](CO)[C@@H](O)[C@H]1O)(c1ccccc1)c1ccccc1 [Example 8, N^6-(2,2-Diphenylpropyl)adenosine] | > 100 | – |
| O=C(OC[C@H]1O[C@@H](n2cnc3c(NCC(c4ccccc4)c4ccccc4)ncnc32)[C@H](OC(=O)c2ccccc2)[C@@H]1OC(=O)c1ccccc1)c1ccccc1 [Example 26, 2',3',5'-Tri-O-benzoyl-N^6-(2,2-diphenylethyl) adenosine] | > 100 | – |
| CC1(C)O[C@@H]2[C@H](O1)[C@@H](CO)O[C@H]2n1cnc2c(NCC(c3ccccc3)c3ccccc3)ncnc21 [Example 29, 2',3'-O-Isopropylidene-N^6-(2,2-diphenylethyl) adenosine] | > 100 | – |
| CC(CNc1nc(N)nc2c1ncn2[C@@H]1O[C@H](CO)[C@@H](O)[C@H]1O)(c1ccccc1)c1ccccc1 [Example 21, N^6-(2,2-Diphenylpropyl)-2-aminoadenosine] | > 100 | – |
| OC[C@H]1O[C@@H](n2cnc3c(NCC(O)(c4ccccc4)c4ccccc4)ncnc32)[C@H](O)[C@@H]1O [Example 22, N^6-(2,2-Diphenyl-2-hydroxyethyl)adenosine] | 100 | – |
| OC[C@H]1O[C@@H](n2cnc3c(NC(c4ccccc4)c4ccccc4)ncnc32)[C@H](O)[C@@H]1O [Example 5, N^6 -Diphenylmethyladenosine] | > 100 | – |
| CC(=O)OC[C@H]1O[C@@H](n2cnc3c(NCC(c4ccccc4)c4ccccc4)ncnc32)[C@H](OC(C)=O)[C@@H]1OC(C)=O [Example 25, 2',3',5'-Tri-O-acetyl-N^6-(2,2-diphenylethyl)adenosine] | > 100 | – |
| OC[C@H]1O[C@@H](n2cnc3c(NCCCCC(c4ccccc4)c4ccccc4)ncnc32)[C@H](O)[C@@H]1O [Example 7, N^6-(5,5-Diphenylpentyl)adenosine] | > 100 | – |
| COC(=O)C(CNc1ncnc2c1ncn2[C@@H]1O[C@H](CO)[C@@H](O)[C@H]1O)(c1ccccc1)c1ccccc1 [Example 24, N^6-(2-Carbomethoxy-2,2-diphenylethyl)adenosine] | > 30 | – |
| Nc1nc(NCC(O)(c2ccccc2)c2ccccc2)c2ncn([C@@H]3O[C@H](CO)[C@@H](O)[C@H]3O)c2n1 [Example 23, N^6-(2,2-Diphenyl-2-hydroxyethyl)-2-aminoadenosine] | > 100 | – |
| Nc1nc(NCC(c2ccc(Cl)cc2)c2ccc(Cl)cc2)c2ncn([C@@H]3O[C@H](CO)[C@@H](O)[C@H]3O)c2n1 [Example 18] | > 30 | – |
